We go through one compound from patent US20200289521A1, “USE OF VITAMIN K IN COMBINATION WITH ANTICOAGULANTS” (KAYDENCE PHARMA AS, priority 2019, published 2020).

For experiment [1], the system named is VSMCs. Kind of experiment: Warfarin-induced oxidative stress in VSMCs, effect of vitamin K2 (DCFDA). It is filed as cell-based. How it is done: It is known that the level of reactive oxygen species in cells can be measured by measuring the conversion of 2′,7′-dichlorofluorescein diacetate (DCFDA) to the fluorescent dye 2′,7′-dichlorofluorescein (DCF). The fluorescence generated by cells subjected to DCFDA is directly proportional to the amount of oxidized DCFDA to DCF.
This study was performed to determine if vitamin K2 (MK-7) reduces warfarin-induced oxidative stress. To perform the study, VSMCs (10,000 cells/well) were plated in a 96-well plate and left to adhere overnight. Next, cells were incubated for 24 hours with 100 μM warfarin. The next day, 20 μM DCFDA was added to the cells for 1 hour. The cells were then incubated for 5 hours with normal medium (baseline), vitamin K2 (MK-7), or warfarin. Fluorescence was measured and fluorescence intensity was normalized for cell count.

Experiment [2] relates to human vascular smooth muscle cells (hVSMCs). As to the kind of experiment: ATP measurement in hVSMCs with warfarin and/or vitamin K2 (luminescence). The class given is cell-based. Particulars: 24 hours. How it is done: This study was performed in order to determine the effect of vitamin K2 (MK-7) on warfarin-induced oxidative stress in muscles. To perform this study, human vascular smooth muscle cells (hVSMCs; 5,000 cells/well) were plated in 96-well dark plates and left to adhere overnight. Next, cells were incubated for 24 hours with either vehicle only (as blank control), warfarin (10 or 50 μM), vitamin K2 (MK-7) (10 μM), or a combination of warfarin (50 μM) and vitamin K2 (MK-7) (10 μM). Hoechst was added to correct for cell number (1 μg/mL). Next, ATP was measured using mammalian lysis buffer for 5 minutes after which 50 μL ATP substrate solution was added to the wells and incubated for 10 minutes in a dark environment. Finally, medium was transferred to a white plate to measure luminescence.

The test system of experiment [3] is VSMCs. Kind of experiment: Hypoxia-induced ATP decrease, co-treatment with CoCl2 (luminescence). The class given is cell-based. Conditions: co-treatment CoCl2 100 μM and 10 μM test substance, 24 hours. How it is done: This study was performed to investigate whether vitamin K2 (MK-7) can prevent the hypoxia-induced decrease in ATP (CoCl2 treatment, thereby stabilization of HIF1a). To perform this study, VSMCs were co-treated with CoCl2 and vitamin K2 (MK-7).
First, VSCMs (5000 cells/well) were plated in 96-well plates and left to adhere overnight. Next, cells were incubated for 24 hours with either CoCl2 (100 μM) or CoCl2 and vitamin K2 (MK-7) or UQ10 together (100 and 10 μM, respectively). Next, ATP was measured and corrected for cell numbers. CoCl2 values were set as relative to CoCl2 co-treated with vitamin K2 (MK-7) or UQ10. Hoechst was added to correct for cell number (1 μg/mL). Next, ATP was measured using mammalian lysis buffer for 5 minutes after which 50 μL ATP substrate solution was added to the wells and incubated for 10 minutes in a dark environment. Finally, medium was transferred to a white plate to measure luminescence.

In experiment [4] the test system is VSMCs. Kind of experiment: ATP over time in VSMCs with vitamin K2 (luminescence). The class given is cell-based. Conditions: 10 μM, indicated time points. How it is done: To perform this study, first, VSCMs (5000 cells/well) were plated in 96-well plates and left to adhere overnight. Next, cells were incubated for indicated time points with vitamin K2 (MK-7) (10 μM). Hoechst was added to correct for cell number (1 μg/mL). Next, ATP was measured using mammalian lysis buffer for 5 minutes, after which 50 μL ATP substrate solution was added to the wells and incubated for 10 minutes in a dark environment. Finally, medium was transferred to a white plate to measure luminescence.

Experiment [5] deals with whole-blood thrombogenicity. As to the kind of experiment: T-TAS Total Thrombus-formation Analysis of whole blood from treated Sprague-Dawley rats. It is filed as in vivo. How it is done:
(§1) This experiment was conducted in order to evaluate the effects of vitamin K2 (MK-7) on the anticoagulant activity of the new oral anticoagulants (NOAC) rivaroxaban and dabigatran using the T-TAS Total Thrombus-formation Analysis System. The T-TAS Total Thrombus-formation Analysis System is a microchip-based flow chamber system capable of evaluating whole-blood thrombogenicity. It is a useful tool in monitoring the efficacy of anticoagulants on thrombus formation and predicting the risk of bleeding complications. To perform the study, 45 wild-type male Sprague-Dawley and 45 transgenic male Ren-2 rats [TGR(mREN-2)27] at the age of 10-11 weeks at the beginning of the treatment period were purchased from animal facility IKEM-CEM Institute of Clinical and Experimental Medicine (Prague, Czech Republic). All animals in the experiment were housed in individually ventilated cages (2-3 rats per cage) and kept in the animal rooms of JCET at a relative humidity of 55±10%, a temperature of 22±2° C., and a light cycle of 7 AM to 7 PM. The rats had free access to food and water. After delivery, animals were randomly divided into 10 experimental groups (5 or 10 rats per group), as indicated below in Table 1. Four days before the start of the treatment, the first part of animals' body weight and food intake was measured in selected representative three cages (rats n=9) to calculate the appropriate amount of tested compounds required for addition to the diet to obtain the dosing indicated in Table 1. It was estimated that food intake was approximately 30 g of chow per rat per day. The animals were fed for two weeks with AIN-93G diet supplemented with rivaroxaban or dabigatran with/without Vitamin K2 (MK-7), as indicated in Table 1. The animals were then anesthetized in order to draw blood samples for further analysis. The body mass of the rats was measured at the beginning and at the end of treatment. At the beginning and at the end of treatment, the food intake per day was measured in representative group of animals to monitor the daily dosing of tested compounds (per kg of body mass). The thrombus formation in vitro was measured in whole blood using a microchip-based flow chamber system according to manufacturers' protocol (Total Thrombus-formation Analyser System, T-TAS; Fujimori Kogyo Co., Ltd., Tokyo, Japan). For the analysis, citrated whole blood (480 μl) was mixed with 20 μl of 300 mM CaCl2 solution containing 1.25 mg/ml CTI (Corn Trypsin Inhibitor). […] The obtained flow pressure pattern for each sample was used to analyze thrombus formation based on the following estimated parameters: […]

For experiment [6], the system named is whole-blood thrombogenicity. As to the kind of experiment: T-TAS Total Thrombus-formation Analysis of whole blood from treated TGR rats. It is filed as in vivo, transgenic Ren-2 rats [TGR(mREN-2)27]. How it is done:
as §1

As for `CC(C)=CCC/C(C)=C/CC/C(C)=C/CC/C(C)=C/CC/C(C)=C/CC/C(C)=C/CC/C(C)=C/CC1=C(C)C(=O)c2ccccc2C1=O` [vitamin K2 (MK-7)], in the experiment with VSMCs [1] (5 hours incubation, no warfarin), the normal oxidative stress entry is given as “reduced not only normal oxidative stress”. The warfarin-induced oxidative stress result in the experiment on VSMCs [1] (24 hours 100 μM warfarin, then 5 hours incubation) was “counteracted the warfarin-induced oxidative stress”. The “cell ATP / ATP generation” value in experiment [2] (warfarin 10 or 50 μM, vitamin K2 (MK-7) 10 μM) was “increased cell ATP”. In addition, the “oxidative stress induced by warfarin” value in experiment [2] (warfarin 50 μM + vitamin K2 (MK-7) 10 μM) is “counteracted the oxidative stress induced by warfarin”. Further, the “hypoxia-induced decrease in ATP generation” value in the experiment on VSMCs [3] is listed as “could (partially) prevent the decreased ATP generation”. Moreover, the “ATP production over time” value in the experiment with VSMCs [4] is reported as “stimulated ATP production”. Besides, in experiment [5] (added to dabigatran and to rivaroxaban), the “increase of occlusion Time (OT) by addition of vitamin K2 (MK-7)” value is recorded as 5-7%. The “formation of a clot (AUC)” value in experiment [5] (vitamin K2 (MK-7) added to dabigatran or rivaroxaban) is reported as “did not prevent the formation of a clot”. For the same compound, in experiment [6], the “effect of vitamin K2 (MK-7) on inhibition of thrombus formation by dabigatran and rivaroxaban” value is “did not modify this effect significantly”.
